# System: H9 embryonic stem cells
# Assay type: cell-based, human
# Settings: low serum
# Protocol: Controls for each group included cells plated on […]-coated dishes and cultured in MEF-conditioned medium or cells plated on MEFs and cultured in ES medium. All groups contained three biological replicates and each biological replicate was repeated on two separate gene chips.
# Sample preparation, hybridization, and image analysis were performed according to the Affymetrix Human Genome U133 Plus 2.0 Array. Following normalization and a log transformation, data analysis was performed using OmniViz® software (MA) and […] (VizXLabs, WA). Significant differences in gene expression between the samples were evaluated using analysis of variance and an F-test with adjusted P-value (Benjamini and
# Hochberg correction) of ≦b 0.05. Only genes with a present call in at least one group were included in the analysis.
substance,measurement,setting,value
Activin A: a member of the TGFβ superfamily; R&D Systems; Group 2 = Activin A (100 ng/ml),"log intensity, nudix (nucleoside diphosphate linked moiety X)-type motif 4",on MATRIGEL,2.095
same,"log intensity, olfactory receptor, family 52, subfamily A, member 1 (OR52A1)",on MATRIGEL,−0.3096
same,"log intensity, oxoglutarate dehydrogenase (lipoamide) (OGDH)",on MATRIGEL,−0.03259
same,"log intensity, partial LHX9 gene for LIM-homeobox 9, 3UTR",on MATRIGEL,−2.2486
same,"log intensity, partial mRNA for putative nuclear factor",on MATRIGEL,1.552
same,"log intensity, phosphatidylinositol-4-phosphate 5-kinase, type I, beta (PIP5K1B)",on MATRIGEL,1.349
same,"log intensity, phosphofructokinase, liver (PFKL)",on MATRIGEL,2.039
same,"log intensity, pilin-like transcription factor (PILB)",on MATRIGEL,3.145
same,"log intensity, pleiomorphic adenoma gene-like 1",on MATRIGEL,−0.6468
same,"log intensity, plexin A2",on MATRIGEL,0.9305
same,"log intensity, polycythemia rubra vera 1; cell surface receptor (PRV1)",on MATRIGEL,−1.196
same,"log intensity, porcupine (MG61)",on MATRIGEL,1.518
same,"log intensity, protease, serine, 4 (trypsin 4, brain)",on MATRIGEL,−0.3456
same,"log intensity, protein S (alpha) (PROS1)",on MATRIGEL,0.5776
same,"log intensity, protocadherin 10",on MATRIGEL,1.767
same,"log intensity, putative 47 kDa protein (r448)",on MATRIGEL,−0.1239
same,"log intensity, putative 47 kDa protein (r770)",on MATRIGEL,0.1565
same,"log intensity, putative sterol reductase SR-1 (TM7SF2)",on MATRIGEL,1.669
same,"log intensity, ras homolog gene family, member B",on MATRIGEL,−0.1231
same,"log intensity, receptor tyrosine kinase-like orphan receptor 2 (ROR2)",on MATRIGEL,1.533
same,"log intensity, regulator of G protein signalling 5 (RGS5)",on MATRIGEL,3.0091
same,"log intensity, ret finger protein-like 2 (RFPL2)",on MATRIGEL,−2.155
same,"log intensity, secreted apoptosis related protein 2 (SARP2)",on MATRIGEL,3.184
same,"log intensity, secreted frizzled-related protein 1",on MATRIGEL,1.649
same,"log intensity, sialyltransferase (STHM)",on MATRIGEL,−0.6871
same,"log intensity, signal transducer and activator of transcription 3 (acute-phase response factor)",on MATRIGEL,−0.8373
same,"log intensity, singed (Drosophila)-like (sea urchin fascin homolog like) (SNL)",on MATRIGEL,4.233
same,"log intensity, sodium dependent phosphate transporter isoform NaPi-IIb",on MATRIGEL,−0.3971
same,"log intensity, solute carrier (SLC25A18)",on MATRIGEL,0.4037
same,"log intensity, solute carrier family 9 (sodiumhydrogen exchanger), isoform 5 (SLC9A5)",on MATRIGEL,0.04749
same,"log intensity, stanniocalcin 1 (STC1), mRNA",on MATRIGEL,2.394
same,"log intensity, stanniocalcin 1 (r1113)",on MATRIGEL,2.487
same,"log intensity, testican 3 (HSAJ1454)",on MATRIGEL,−2.812
same,"log intensity, testis enhanced gene transcript (BAX inhibitor 1)",on MATRIGEL,−0.6952
same,"log intensity, thyrotropin-releasing hormone (TRH)",on MATRIGEL,−1.657
same,"log intensity, transcription factor 2, hepatic; LF-B3; variant hepatic nuclear factor (TCF2), transcript variant a",on MATRIGEL,−1.125
same,"log intensity, transcriptional activator of the c-fos promoter (CROC4)",on MATRIGEL,0.6664
same,"log intensity, transmembrane tyrosine kinase mRNA",on MATRIGEL,−0.006089
same,"log intensity, tropomodulin, clone MGC: 3643",on MATRIGEL,0.3488
same,"log intensity, tryptase, alpha",on MATRIGEL,2.991
same,"log intensity, tudor repeat associator with PCTAIRE 2",on MATRIGEL,2.158
same,"log intensity, tyrosine 3-monooxygenasetryptophan 5-monooxygenase activation protein, eta polypeptide (r705)",on MATRIGEL,2.985
same,"log intensity, tyrosine 3-monooxygenasetryptophan 5-monooxygenase activation protein, eta polypeptide (r966)",on MATRIGEL,3.483
same,"log intensity, AD036 mRNA",on MEFS,1.603
same,"log intensity, ADP-ribosylation factor 4-like (ARF4L)",on MEFS,4.48
same,"log intensity, BACE mRNA for beta-site APP cleaving enzyme I-476",on MEFS,1.446
same,"log intensity, BTB (POZ) domain containing 2 (BTBD2)",on MEFS,2.325
same,"log intensity, CXCR4 gene encoding receptor CXCR4",on MEFS,6.361
same,"log intensity, Cluster Incl. AB002344: Human mRNA for KIAA0346 gene (r901)",on MEFS,3.478
same,"log intensity, Cluster Incl. AB002344: Human mRNA for KIAA0346 gene (r941)",on MEFS,3.317
same,"log intensity, Cluster Incl. L37033: Human FK-506 binding protein homologue (FKBP38)",on MEFS,1.661
same,"log intensity, Cluster Incl. N80935: zb07g06.s1 Homo sapiens cDNA",on MEFS,2.666
same,"log intensity, ESTs (r403)",on MEFS,2.715
same,"log intensity, ESTs (r404)",on MEFS,2.276
same,"log intensity, ESTs (r405)",on MEFS,−1.711
same,"log intensity, ESTs (r442)",on MEFS,5.906
same,"log intensity, ESTs (r453)",on MEFS,−2.153
same,"log intensity, ESTs (r473)",on MEFS,0.8364
same,"log intensity, ESTs (r491)",on MEFS,−0.4453
same,"log intensity, ESTs (r522)",on MEFS,2.214
same,"log intensity, ESTs (r523)",on MEFS,0.05049
same,"log intensity, ESTs (r524)",on MEFS,2.399
same,"log intensity, ESTs (r556)",on MEFS,0.7383
same,"log intensity, ESTs (r567)",on MEFS,1.124
same,"log intensity, ESTs (r627)",on MEFS,3.973
same,"log intensity, ESTs (r741)",on MEFS,2.614
same,"log intensity, ESTs (r745)",on MEFS,3.836
same,"log intensity, ESTs (r766)",on MEFS,2.128
same,"log intensity, ESTs (r767)",on MEFS,−0.3504
same,"log intensity, ESTs (r891)",on MEFS,−0.1307
same,"log intensity, ESTs (r916)",on MEFS,1.395
same,"log intensity, ESTs (r938)",on MEFS,−0.6132
same,"log intensity, ESTs (r980)",on MEFS,0.5547
same,"log intensity, ESTs (r1021)",on MEFS,0.6436
same,"log intensity, ESTs (r1022)",on MEFS,3.471
same,"log intensity, ESTs (r1059)",on MEFS,2.077
same,"log intensity, ESTs (r1060)",on MEFS,2.463
same,"log intensity, ESTs (r1110)",on MEFS,3.792
same,"log intensity, ESTs (r1115)",on MEFS,2.521
same,"log intensity, ESTs, Highly similar to AF229172 1 class III myosin",on MEFS,0.002417
same,"log intensity, ESTs, Moderately similar to ALU4_HUMAN ALU SUBFAMILY SB2",on MEFS,−0.9837
same,"log intensity, ESTs, Moderately similar to JC4969 pig-c protein",on MEFS,−1.045
same,"log intensity, ESTs, Moderately similar to NFY-C",on MEFS,−0.2427
same,"log intensity, ESTs, Weakly similar to A46302 PTB-associated splicing factor, long form",on MEFS,2.695
same,"log intensity, ESTs, Weakly similar to ALU8_HUMAN ALU SUBFAMILY SX",on MEFS,4.578
same,"log intensity, ESTs, Weakly similar to ALUC_HUMAN",on MEFS,2.7193
same,"log intensity, ESTs, Weakly similar to ALUF_HUMAN",on MEFS,0.5876
same,"log intensity, ESTs, Weakly similar to KIAA1330 protein",on MEFS,1.182
same,"log intensity, ESTs, Weakly similar to KIAA1399 protein",on MEFS,2.8
same,"log intensity, ESTs, Weakly similar to T32252 hypothetical protein T15B7.2",on MEFS,3.333
same,"log intensity, ESTs, Weakly similar to Z132_HUMAN ZINC FINGER PROTEIN 13",on MEFS,2.122
same,"log intensity, F37Esophageal cancer-related gene-coding leucine-zipper motif (FEZ1)",on MEFS,2.104
same,"log intensity, FLICE-like inhibitory protein short form",on MEFS,4.928
same,"log intensity, GS1999full mRNA",on MEFS,0.8499
same,"log intensity, H1 histone family, member X (H1FX)",on MEFS,4.51
same,"log intensity, H2A histone family, member X",on MEFS,−0.04057
same,"log intensity, H. sapiens skeletal embryonic myosin light chain 1 (MLC1)",on MEFS,2.36
same,"log intensity, HT016 mRNA",on MEFS,2.452
same,"log intensity, Homo sapiens nudix (nucleoside diphosphate linked moiety X)-type motif (r1198)",on MEFS,6.428
same,"log intensity, Human DNA sequence from clone RP4-781L3 on chromosome 1p34.3-36.11",on MEFS,4.439
same,"log intensity, Human DNA sequence from clone RP11-446H13 on chromosome 10",on MEFS,2.12
same,"log intensity, Human MLC1emb gene for embryonic myosin alkaline light chain, promoter and exon 1",on MEFS,4.04
same,"log intensity, Human clone 23826 mRNA sequence",on MEFS,1.443
same,"log intensity, Human embryonic myosin alkali light chain (MLC1)",on MEFS,4.115
same,"log intensity, Human extracellular matrix protein 1 (ECM1)",on MEFS,1.376
same,"log intensity, Human mRNA for pro-alpha 1 (II) collagen 3end C-term.",on MEFS,2.157
same,"log intensity, Human rho GDI mRNA",on MEFS,−0.6515
same,"log intensity, KIAA0127 gene product (KIAA0127)",on MEFS,3.002
same,"log intensity, KIAA0346 protein",on MEFS,1.415
same,"log intensity, KIAA0418 gene product",on MEFS,0.03438
same,"log intensity, KIAA0761 protein",on MEFS,1.059
same,"log intensity, KIAA0882 protein",on MEFS,4.675
same,"log intensity, KIAA0918 protein",on MEFS,−0.575
same,"log intensity, KIAA1415 protein",on MEFS,1.743
same,"log intensity, KIAA1511 protein",on MEFS,1.575
same,"log intensity, Kruppel-like factor 8 (KLF8)",on MEFS,1.639
same,"log intensity, LIM homeobox protein 1 (LHX1)",on MEFS,0.08556
same,"log intensity, LYST-interacting protein LIP3",on MEFS,−0.3125
same,"log intensity, MAD (mothers against decapentaplegic, Drosophila) homolog 6 (MADH6)",on MEFS,3.5309
same,"log intensity, MYC-associated zinc finger protein (purine-binding transcription factor) (MAZ)",on MEFS,0.5113
same,"log intensity, Novel human mRNA from chromosome 22",on MEFS,3.058
same,"log intensity, PNAS-145 mRNA",on MEFS,4.2868
same,"log intensity, PRO1957 mRNA",on MEFS,4.227
same,"log intensity, PTPRF interacting protein, binding protein 2 (liprin beta 2)",on MEFS,2.773
same,"log intensity, Pig10 (PIG10)",on MEFS,1.098
same,"log intensity, SG2NA beta isoform",on MEFS,−1.534
same,"log intensity, Similar to B9 protein, clone MGC: 11339",on MEFS,2.292
same,"log intensity, Similar to RIKEN cDNA C330013D18 gene, clone MGC: 11226",on MEFS,1.427
same,"log intensity, Similar to lipase protein, clone MGC: 2843",on MEFS,0.9617
same,"log intensity, X75208 H. sapiens HEK2 mRNA for protein tyrosine kinase receptor",on MEFS,1.082
same,"log intensity, adaptor-related protein complex 3, beta 2 subunit (AP3B2)",on MEFS,1.074
same,"log intensity, adenylate cyclase 8 (brain) (ADCY8)",on MEFS,−2.261
same,"log intensity, alpha 2,8-sialyltransferase",on MEFS,1.055
same,"log intensity, aminolevulinate, delta-, dehydratase, clone MGC: 5057",on MEFS,2.769
same,"log intensity, annexin A6 (ANXA6), transcript variant 1",on MEFS,4.5
same,"log intensity, apolipoprotein A-II (APOA2)",on MEFS,4.759
same,"log intensity, apolipoprotein C-I (APOC1)",on MEFS,5.51
same,"log intensity, arrestin, beta 1 (ARRB1), transcript variant 1",on MEFS,−0.4092

# Source: patent publication US20100255580A1, “Differentiation of Human Embryonic Stem Cells” (LIFESCCAN, INC., priority 2007, published 2010)
